Measured values: paper PMC7717600, “Novel [(N-alkyl-3-indolylmethylene)hydrazono]oxindoles arrest cell cycle and induce cell apoptosis by inhibiting CDK2 and Bcl-2: synthesis, biological evaluation and in silico studies” (Journal of Enzyme Inhibition and Medicinal Chemistry, 2020)

Key:
COLO 205 = assay: NCI SRB screening; type: cell-based, human; conditions: COLO 205, 10 μM
HCC-2998 = assay: NCI SRB screening; type: cell-based, human; conditions: HCC-2998, 10 μM
LOX IMVI = assay: NCI SRB screening; type: cell-based, human; conditions: 10 μM
MDA-MB-435 = assay: NCI SRB screening; type: cell-based; conditions: MDA-MB-435, 10 μM
PC-3 = assay: NCI SRB screening; type: cell-based, human; conditions: PC-3, 10 μM
A-549 = assay: SRB anti-proliferative assay; type: cell-based; conditions: Homo sapiens, A549; A-549, SRB, mean ± SE of 3
HCT-116 [1] = assay: SRB anti-proliferative assay; type: cell-based; conditions: Homo sapiens; HCT-116, SRB, mean ± SE of 3
MDA-MB-231 = assay: SRB anti-proliferative assay; type: cell-based; conditions: Homo sapiens; MDA-MB-231, SRB, mean ± SE of 3
HL-60(TB) = conditions: HL-60(TB), 10 μM
K-562 = conditions: K-562, 10 μM
MOLT-4 = conditions: MOLT-4, 10 μM
RPMI-8226 = conditions: RPMI-8226, 10 μM
SR = conditions: 10 μM
EKVX = conditions: 10 μM
HOP-62 = conditions: HOP-62, 10 μM
NCI-H226 = conditions: NCI-H226, 10 μM
NCI-H23 = conditions: NCI-H23, 10 μM
NCI-H522 = conditions: NCI-H522, 10 μM
HCT-116 [2] = conditions: HCT-116, 10 μM
HT29 = conditions: HT29, 10 μM
KM12 = conditions: KM12, 10 μM
SF-268 = conditions: SF-268, 10 μM
SF-295 = conditions: SF-295, 10 μM
SNB-19 = conditions: SNB-19, 10 μM
SNB-75 = conditions: SNB-75, 10 μM
U251 = conditions: U251, 10 μM
SK-MEL-28 = conditions: SK-MEL-28, 10 μM
UACC-257 = conditions: UACC-257, 10 μM
IGROV1 = conditions: IGROV1, 10 μM
OVCAR-3 = conditions: OVCAR-3, 10 μM
NCI/ADR-RES = conditions: 10 μM
SK-OV-3 = conditions: SK-OV-3, 10 μM
786-0 = conditions: 786-0, 10 μM
A498 = conditions: A498, 10 μM
ACHN = conditions: 10 μM
RXF 393 = conditions: RXF 393, 10 μM
SN12C = conditions: 10 μM
UO-31 = conditions: UO-31, 10 μM
DU-145 = conditions: DU-145, 10 μM
MCF7 = conditions: MCF7, 10 μM
BT-549 = conditions: BT-549, 10 μM
T-47D = conditions: 10 μM
MDA-MB-468 = conditions: MDA-MB-468, 10 μM

CC(C)n1cc(C=NN=C2C(=O)Nc3ccccc32)c2ccccc21 [Compound 9]
GI % (COLO 205): – (Only GI % higher than 10% are shown)
GI % (HCC-2998): – (Only GI % higher than 10% are shown)
GI % (LOX IMVI): – (Only GI % higher than 10% are shown)
GI % (MDA-MB-435): – (Only GI % higher than 10% are shown)
GI % (PC-3): – (Only GI % higher than 10% are shown)
IC50 (A-549): 31.7 ± 2.27 µM
IC50 (HCT-116 [1]): 28.2 ± 1.73 µM
IC50 (MDA-MB-231): 10.4 ± 0.8 µM
GI % (HL-60(TB)): 18%
GI % (K-562): – (Only GI % higher than 10% are shown)
GI % (MOLT-4): 13%
GI % (RPMI-8226): – (Only GI % higher than 10% are shown)
GI % (SR): 11%
GI % (EKVX): 38%
GI % (HOP-62): – (Only GI % higher than 10% are shown)
GI % (NCI-H226): 16%
GI % (NCI-H23): – (Only GI % higher than 10% are shown)
GI % (NCI-H522): 10%
GI % (HCT-116 [2]): – (Only GI % higher than 10% are shown)
GI % (HT29): – (Only GI % higher than 10% are shown)
GI % (KM12): – (Only GI % higher than 10% are shown)
GI % (SF-268): – (Only GI % higher than 10% are shown)
GI % (SF-295): – (Only GI % higher than 10% are shown)
GI % (SNB-19): – (Only GI % higher than 10% are shown)
GI % (SNB-75): 33%
GI % (U251): – (Only GI % higher than 10% are shown)
GI % (SK-MEL-28): – (Only GI % higher than 10% are shown)
GI % (UACC-257): – (Only GI % higher than 10% are shown)
GI % (IGROV1): – (Only GI % higher than 10% are shown)
GI % (OVCAR-3): – (Only GI % higher than 10% are shown)
GI % (NCI/ADR-RES): – (Only GI % higher than 10% are shown)
GI % (SK-OV-3): – (Only GI % higher than 10% are shown)
GI % (786-0): – (Only GI % higher than 10% are shown)
GI % (A498): – (Only GI % higher than 10% are shown)
GI % (ACHN): – (Only GI % higher than 10% are shown)
GI % (RXF 393): – (Only GI % higher than 10% are shown)
GI % (SN12C): – (Only GI % higher than 10% are shown)
GI % (UO-31): 14%
GI % (DU-145): – (Only GI % higher than 10% are shown)
GI % (MCF7): 10%
GI % (BT-549): – (Only GI % higher than 10% are shown)
GI % (T-47D): 13%
GI % (MDA-MB-468): – (Only GI % higher than 10% are shown)

C=CCn1cc(C=NN=C2C(=O)Nc3ccccc32)c2ccccc21 [Compound 10a]
GI % (COLO 205): 30%
GI % (HCC-2998): – (Only GI % higher than 10% are shown)
GI % (LOX IMVI): – (Only GI % higher than 10% are shown)
GI % (MDA-MB-435): – (Only GI % higher than 10% are shown)
GI % (PC-3): 22%
IC50 (A-549): 17.3 ± 1.19 µM
IC50 (HCT-116 [1]): 7.7 ± 0.68 µM
IC50 (MDA-MB-231): 11.7 ± 1.04 µM
GI % (HL-60(TB)): 22%
GI % (K-562): 30%
GI % (MOLT-4): 35%
GI % (RPMI-8226): 13%
GI % (SR): 50%
GI % (EKVX): – (Only GI % higher than 10% are shown)
GI % (HOP-62): – (Only GI % higher than 10% are shown)
GI % (NCI-H226): 13%
GI % (NCI-H23): 12%
GI % (NCI-H522): 31%
GI % (HCT-116 [2]): 24%
GI % (HT29): 10%
GI % (KM12): – (Only GI % higher than 10% are shown)
GI % (SF-268): – (Only GI % higher than 10% are shown)
GI % (SF-295): – (Only GI % higher than 10% are shown)
GI % (SNB-19): – (Only GI % higher than 10% are shown)
GI % (SNB-75): 18%
GI % (U251): 10%
GI % (SK-MEL-28): – (Only GI % higher than 10% are shown)
GI % (UACC-257): – (Only GI % higher than 10% are shown)
GI % (IGROV1): 28%
GI % (OVCAR-3): 21%
GI % (NCI/ADR-RES): – (Only GI % higher than 10% are shown)
GI % (SK-OV-3): – (Only GI % higher than 10% are shown)
GI % (786-0): – (Only GI % higher than 10% are shown)
GI % (A498): – (Only GI % higher than 10% are shown)
GI % (ACHN): – (Only GI % higher than 10% are shown)
GI % (RXF 393): 11%
GI % (SN12C): – (Only GI % higher than 10% are shown)
GI % (UO-31): 33%
GI % (DU-145): – (Only GI % higher than 10% are shown)
GI % (MCF7): 33%
GI % (BT-549): – (Only GI % higher than 10% are shown)
GI % (T-47D): 56%
GI % (MDA-MB-468): 20%
